Results published in patent publication US20250154170A1, “FUSED PYRIMIDINES AS KRAS INHIBITORS” (priority 2022, published 2025).
Values joined by “and” are separate entries in the source; they are usually repeats but may differ in a detail not shown here. Equal values may be shown once.

Experiments:
K-Ras-wildtype = K-Ras-wildtype (Homo sapiens, UniProt P01116); assay: K-Ras-wildtype activation by SOS1 (wild-type KRAS activation by SOS1cat assay, HTRF); type: biochemical; settings: mean, SOS1cat mediated loading of wild-type GST-KRAS-GDP with fluorescent GTP analogue, read-out: K-Ras-wildtype activation by SOS1 IC50 - [mol/l] (mean)
Procedure: (§1) Preparation of test compound dilutions. A 100-fold concentrated solution of the test compound (50 nL) in DMSO was transferred to microtiter test plates (384 or 1,536 wells, Greiner Bio-One, Germany) using either a Hummingbird liquid handler (Digilab, MA, USA) or an Echo acoustic system (Labcyte, CA, USA). Plates were sealed with adhesive foil or heat-sealed and stored at −20 C until use. Serial dilutions of test compounds were prepared in 100% DMSO using a Precision Pipetting System (BioTek, USA).
(§2) Measurement and evaluation of inhibition data, calculation of IC50 values. Homogeneous time-resolved fluorescence (HTRF) was measured with a PHERAstar reader (BMG, Germany) using the HTRF module (excitation: 337 nm; emission 1: 620 nm, emission 2: 665 nm). The ratio of the emissions at 665 and 620 nm was used as the specific signal for further evaluation. The data were normalized using the controls: DMSO=0% inhibition, inhibition control wells with inhibitor control solution=100% inhibition. Compounds were tested in duplicates at up to 11 concentrations (e.g. 20 μM, 5.7 μM, 1.6 μM, 0.47 μM, 0.13 μM, 38 nM, 11 nM, 3.1 nM, 0.89 nM, 0.25 nM and 0.073 nM). IC50 values were calculated using a four-parameter fit, with a commercial software package (Genedata Screener, Switzerland).
(§3) KRAS^G12C activation by SOS1^cat assay (“On-assay”). This assay quantifies SOS1^cat mediated loading of KRAS^G12C-GDP with a fluorescent GTP analogue. Detection of successful loading was achieved by measuring resonance energy transfer from anti-GST-terbium (FRET donor) bound to GST-KRAS^G12C to the loaded fluorescent GTP analogue (FRET acceptor). The fluorescent GTP analogue EDA-GTP-DY-647P1 [2′/3′-O-(2-aminoethyl-carbamoyl)guanosine-5′-triphosphate labelled with DY-647P1 (Dyomics GmbH, Germany)] was synthesized by Jena Bioscience (Germany) and supplied as a 1 mM aqueous solution. A KRAS^G12C working solution was prepared in assay buffer [10 mM HEPES pH 7.4 (AppliChem), 150 mM NaCl (Sigma), 5 mM MgCl2 (Sigma), 1 mM DTT (Thermo Fisher), 0.05% BSA Fraction V pH 7.0 (ICN Biomedicals), 0.0025% (v/v) Igepal (Sigma)] containing GST-KRAS^G12C (final concentration in assay 50 nM) and anti-GST-terbium (Cisbio, France) (final concentration in assay 1 nM). A SOS1^cat working solution was prepared in assay buffer containing SOS1^cat (final concentration 10 nM) and EDA-GTP-DY-647P1 (final concentration 100 nM). An inhibitor control solution was prepared in assay buffer containing EDA-GTP-DY-647P1 (final concentration 100 nM) without SOS1^cat. All steps of the assay were performed at 20° C. A volume of 3 μL of the KRAS^G12C working solution was added to all wells of the test plate using a Multidrop dispenser (Thermo LabSystems). After 15 min, 2 μL of the SOS1^ct working solution was added to all wells, except for the inhibitor control solution wells. After 30 min incubation, HTRF was measured.
(§4) G12D and Wild-type KRAS activation by SOS1cat assays. These assays quantify human SOS1^cat mediated loading of wild-type GST-KRAS^WT-GDP or GST-KRAS^G12D-GDP with a fluorescent GTP analogue. The assay was performed similarly to the KRAS^G12C activation by SOS1^cat assay with the following differences: final concentration of SOS1^cat of 60 nM and final incubation time before measurement of 10 min for KRAS^G12D assay, final concentration of SOS1^cat of 20 nM and final incubation time before measurement of 15 min for wild-type KRAS assay, respectively. GST-KRAS^G12C was replaced by GST-KRAS^WT or GST-KRAS^G12D, respectively, also at 50 nM final concentration.
Wild-type KRAS activation by SOS1^cat assay. This assay quantifies human SOS1^cat mediated loading of wild-type GST-KRAS-GDP with a fluorescent GTP analogue. The assay was performed similarly to the KRAS^G12D activation by SOS1^cat assay just by replacement of GST-KRAS^G12D by wild-type GST-KRAS while concentrations of all components and incubation times were the same.

K-Ras G12D = K-Ras G12D (Homo sapiens, UniProt P01116, G12D); assay: K-Ras G12D activation by SOS1 (KRAS G12D activation by SOS1cat assay, HTRF); type: biochemical; settings: mean, SOS1cat mediated loading of GST-KRAS G12D-GDP with fluorescent GTP analogue, read-out: K-Ras G12D activation by SOS1 IC50 - [mol/l] (mean)
Procedure: as §1, §2, §3, §4
KRAS^G12D activation by SOS1^cat assay (“On-assay”). This assay quantifies SOS1^cat mediated loading of KRAS^G12D-GDP with a fluorescent GTP analogue. Detection of successful loading was achieved by measuring resonance energy transfer from anti-GST-terbium (FRET donor) bound to GST-KRAS^G12D to the loaded fluorescent GTP analogue (FRET acceptor).

Sequence of K-Ras-wildtype (P01116 1-188 isoform P01116-2): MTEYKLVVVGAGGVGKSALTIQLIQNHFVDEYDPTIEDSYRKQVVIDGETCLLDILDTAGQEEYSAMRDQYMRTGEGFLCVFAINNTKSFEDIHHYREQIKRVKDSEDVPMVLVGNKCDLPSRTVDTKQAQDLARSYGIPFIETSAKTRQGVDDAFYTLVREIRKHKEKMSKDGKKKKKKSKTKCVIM
Sequence of K-Ras G12D (P01116 1-188 isoform P01116-2 G12D): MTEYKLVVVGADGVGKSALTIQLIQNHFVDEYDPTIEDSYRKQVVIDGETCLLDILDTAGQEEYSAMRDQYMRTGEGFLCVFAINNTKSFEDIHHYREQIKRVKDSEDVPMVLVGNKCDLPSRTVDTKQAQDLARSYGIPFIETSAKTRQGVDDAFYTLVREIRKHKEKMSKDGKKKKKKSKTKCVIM

With C#Cc1c(F)ccc2cc(O)cc(Oc3nc4c(N5CC6CCC(C5)NC6)nc(OC[C@@]56CCCN5C[C@H](F)C6)nc4s3)c12 (relative stereo) [Example 16, 4-[(7-[(1R*,5R*)-3,6-diazabicyclo[3.2.2]nonan-3-yl]-5-{[(2R,7aS)-2-fluorotetrahydro-1H-pyrrolizin-7a(5H)-yl]methoxy}[1,3]thiazolo[5,4-d]pyrimidin-2-yl)oxy]-5-ethynyl-6-fluoronaphthalen-2-ol] as the compound, how does the IC50 (K-Ras-wildtype) read?
Its IC50 is 212 nM.

And the IC50 (K-Ras G12D)?
Its IC50 is 15.2 nM.

C#Cc1c(F)ccc2cc(O)cc(Oc3nc4c(N5CC6CCC(C5)NC6)nc(OC[C@@]56CCCN5C[C@H](F)C6)nc4s3)c12 (single isomer, unassigned) [Example 20, 4-[(7-[(1R*,5R*)-3,6-diazabicyclo[3.2.2]nonan-3-yl]-5-{[(2R,7aS)-2-fluorotetrahydro-1H-pyrrolizin-7a(5H)-yl]methoxy}[1,3]thiazolo[5,4-d]pyrimidin-2-yl)oxy]-5-ethynyl-6-fluoronaphthalen-2-ol] was tested. Which IC50 (K-Ras-wildtype) did it give?
Its IC50 is 405 nM.

And the IC50 (K-Ras G12D)?
The IC50 was 8.11 nM.

With C#Cc1c(F)ccc2cc(O)cc(Oc3nc4c(N5CC6CCC(C5)NC6)nc(OC[C@@]56CCCN5C[C@H](F)C6)nc4s3)c12 (single isomer, unassigned) [Example 21, 4-[(7-[(1S*,5S*)-3,6-diazabicyclo[3.2.2]nonan-3-yl]-5-{[(2R,7aS)-2-fluorotetrahydro-1H-pyrrolizin-7a(5H)-yl]methoxy}[1,3]thiazolo[5,4-d]pyrimidin-2-yl)oxy]-5-ethynyl-6-fluoronaphthalen-2-ol] as the compound, how does the IC50 (K-Ras-wildtype) read?
The IC50 was 182 nM.

What about the IC50 (K-Ras G12D) of the same compound?
Its IC50 is 219 nM.

What does the source list for C#Cc1c(F)ccc2cc(O)cc(Oc3nc4c(N5C[C@H]6CC(F)[C@@H](C5)N6)nc(OC[C@@]56CCCN5C[C@H](F)C6)nc4s3)c12 (single isomer, unassigned) [Example 24, 5-Ethynyl-6-fluoro-4-[(7-[(1R*,5R*)-6-fluoro-3,8-diazabicyclo[3.2.1]octan-3-yl]-5-{[(2R,7aS)-2-fluorotetrahydro-1H-pyrrolizin-7a(5H)-yl]methoxy}[1,3]thiazolo[5,4-d]pyrimidin-2-yl)oxy]naphthalen-2-ol]?
IC50 (K-Ras-wildtype): 24.1 nM; IC50 (K-Ras G12D): 26.7 nM

Which IC50 (K-Ras-wildtype) does the source give for C#Cc1c(F)ccc2cc(O)cc(Oc3nc4c(N5C[C@H]6CC(F)[C@@H](C5)N6)nc(OC[C@@]56CCCN5C[C@H](F)C6)nc4s3)c12 (single isomer, unassigned) [Example 25, 5-Ethynyl-6-fluoro-4-[(7-[(1R*,5R*)-6-fluoro-3,8-diazabicyclo[3.2.1]octan-3-yl]-5-{[(2R,7aS)-2-fluorotetrahydro-1H-pyrrolizin-7a(5H)-yl]methoxy}[1,3]thiazolo[5,4-d]pyrimidin-2-yl)oxy]naphthalen-2-ol] here?
The IC50 was 69.9 nM.

What about the IC50 (K-Ras G12D) of the same compound?
Its IC50 is 18.7 nM.

What does the source list for C#Cc1c(F)ccc2cc(O)cc(Oc3nc4c(N5C[C@H]6CC(F)[C@@H](C5)N6)nc(OC[C@@]56CCCN5C[C@H](F)C6)nc4s3)c12 (single isomer, unassigned) [Example 26, 5-Ethynyl-6-fluoro-4-[(7-[(1R*,5R*)-6-fluoro-3,8-diazabicyclo[3.2.1]octan-3-yl]-5-{[(2R,7aS)-2-fluorotetrahydro-1H-pyrrolizin-7a(5H)-yl]methoxy}[1,3]thiazolo[5,4-d]pyrimidin-2-yl)oxy]naphthalen-2-ol]?
IC50 (K-Ras-wildtype): 25.9 nM; IC50 (K-Ras G12D): 26.3 nM

With C#Cc1c(F)ccc2cc(O)cc(Oc3nc4c(N5C[C@H]6CC(F)[C@@H](C5)N6)nc(OC[C@@]56CCCN5C[C@H](F)C6)nc4s3)c12 (single isomer, unassigned) [Example 27, 5-Ethynyl-6-fluoro-4-[(7-[(1R*,5R*)-6-fluoro-3,8-diazabicyclo[3.2.1]octan-3-yl]-5-{[(2R,7aS)-2-fluorotetrahydro-1H-pyrrolizin-7a(5H)-yl]methoxy}[1,3]thiazolo[5,4-d]pyrimidin-2-yl)oxy]naphthalen-2-ol] as the compound, how does the IC50 (K-Ras-wildtype) read?
Its IC50 is 91.2 nM.

What about the IC50 (K-Ras G12D) of the same compound?
Its IC50 is 23.7 nM.

For C#Cc1c(F)ccc2cc(O)cc(Oc3nc4c(N5CC6CCC(C5)N6)nc(OC[C@@]56CCCN5CC(F)C6)nc4s3)c12 (stereo in doubt) [Example 6, 4-{[7-(3,8-diazabicyclo[3.2.1]octan-3-yl)-5-{[(2R,7aS)-2-fluorotetrahydro-1H-pyrrolizin-7a(5H)-yl]methoxy}[1,3]thiazolo[5,4-d]pyrimidin-2-yl]oxy}-5-ethynyl-6-fluoronaphthalen-2-ol], which IC50 (K-Ras-wildtype) is on record?
The IC50 was 32.8 nM and 33.1 nM.

And the IC50 (K-Ras G12D)?
Its IC50 is 1.86 nM and 2.18 nM.

With Oc1cc(Oc2nc3c(N4CC5CCC(C4)N5)nc(OCC45CCCN4CCC5)nc3s2)c2ccccc2c1 [Example 1, 4-{[7-(3,8-diazabicyclo[3.2.1]octan-3-yl)-5-(tetrahydro-1H-pyrrolizin-7a(5H)-ylmethoxy)[1,3]thiazolo[5,4-d]pyrimidin-2-yl]oxy}-2-naphthol] as the compound, how does the IC50 (K-Ras-wildtype) read?
Its IC50 is at least 20000 nM.

What about the IC50 (K-Ras G12D) of the same compound?
Its IC50 is 1000 nM.

What does the source list for C#Cc1cccc2cc(O)cc(Oc3nc4c(N5CC6CCC(C5)N6)nc(OCC56CCCN5CCC6)nc4s3)c12 [Example 2, 4-{[7-(3,8-diazabicyclo[3.2.1]octan-3-yl)-5-(tetrahydro-1H-pyrrolizin-7a(5H)-ylmethoxy)[1,3]thiazolo[5,4-d]pyrimidin-2-yl]oxy}-5-ethynyl-2-naphthol]?
IC50 (K-Ras-wildtype): 126 nM; IC50 (K-Ras G12D): 5.55 nM

For Oc1cc(Oc2nc3c(N4C[C@H]5CC[C@@H](C4)N5)nc(OCC45CCCN4CCC5)nc3s2)c2c(F)cccc2c1 [Example 3, 4-({7-[(1R,5S)-3,8-diazabicyclo[3.2.1]octan-3-yl]-5-[(tetrahydro-1H-pyrrolizin-7a(5H)-yl)methoxy][1,3]thiazolo[5,4-d]pyrimidin-2-yl}oxy)-5-fluoronaphthalen-2-ol], which IC50 (K-Ras-wildtype) is on record?
The IC50 was 8140 nM.

And the IC50 (K-Ras G12D)?
The IC50 was 325 nM.

Which IC50 (K-Ras-wildtype) does the source give for Cc1cccc2cc(O)cc(Oc3nc4c(N5CC6CCC(C5)N6)nc(OCC56CCCN5CCC6)nc4s3)c12 [Example 4, 4-({7-(3,8-diazabicyclo[3.2.1]octan-3-yl)-5-[(tetrahydro-1H-pyrrolizin-7a(5H)-yl)methoxy][1,3]thiazolo[5,4-d]pyrimidin-2-yl}oxy)-5-methylnaphthalen-2-ol] here?
Its IC50 is 1550 nM.

And the IC50 (K-Ras G12D)?
The IC50 was 79.8 nM.

What does the source list for C#Cc1c(F)ccc2cc(O)cc(Oc3nc4c(N5C[C@H]6CC[C@@H](C5)N6)nc(OCC56CCCN5CCC6)nc4s3)c12 [Example 5, 4-({7-[(1R,5S)-3,8-diazabicyclo[3.2.1]octan-3-yl]-5-[(tetrahydro-1H-pyrrolizin-7a(5H)-yl)methoxy][1,3]thiazolo[5,4-d]pyrimidin-2-yl}oxy)-5-ethynyl-6-fluoronaphthalen-2-ol]?
IC50 (K-Ras-wildtype): 69.1 nM; IC50 (K-Ras G12D): 3.79 nM

What does the source list for Oc1cc(Nc2nc3c(N4CC5CCC(C4)N5)nc(OCC45CCCN4CCC5)nc3s2)c2ccccc2c1 [Example 7, 4-({7-(3,8-diazabicyclo[3.2.1]octan-3-yl)-5-[(tetrahydro-1H-pyrrolizin-7a(5H)-yl)methoxy][1,3]thiazolo[5,4-d]pyrimidin-2-yl}amino)naphthalen-2-ol]?
IC50 (K-Ras-wildtype): ≥ 20000 nM; IC50 (K-Ras G12D): 3360 nM
